SMILES strings stand for the structures.

This assay relates to influenza virus H3N2X31. Type of assay: cell-based. The settings on record: human bronchial and parenchymal lung tissue explants, X31 virus, NP-1 antibody, flow cytometry; FIG. 8.

With `Cl.N` [ammonium chloride], the “efficacy as inhibitor of viral infection in the explant model (primary output: percentage of cells infected)” value is reported as “demonstrated the efficacy”.

For `CCOC(=O)C1=C[C@@H](OC(CC)CC)[C@H](NC(C)=O)[C@@H](N)C1` [oseltamivir], the “efficacy as inhibitor of viral infection in the explant model (primary output: percentage of cells infected)” value was “demonstrated the efficacy”.

The values are drawn from US20120183950A1, “TISSUE ANALYSIS” (priority 2009, published 2012).
